Here are results for two compounds from the NIST ThermoML archive (doi:10.1021/je501085y).

Structures are written as SMILES. ± gives the expanded uncertainty stated by the source.

Data set [1] can be described thus: refractive index (Na D-line) (dimensionless). Conditions: 293.15 K; 101.33 kPa; Liquid; Standard Abbe refractometry.
For data set [2] the following is noted: 293.15 K; 101.33 kPa; Liquid; Vibrating tube method.

As a reminder, the refractive index is a measure of how strongly the sample bends light. By mass density is commonly meant the mass of a sample divided by its volume. Turning to `COC1CCCC1` [methoxycyclopentane], the refractive index in data set [1] was determined as 1.4187 ± 0.0007. Besides, in data set [2], the mass density is listed as 860.43 ± 0.12 kg/m3.

For `C=CC(=O)O` [propenoic acid], in data set [1], the refractive index was 1.4223 ± 0.0007. For the same compound, the mass density in data set [2] came out at 1051.22 ± 0.1 kg/m3.
